Measured values as given in patent publication US20240059727A1, “METHOD OF MAKING NICOTINAMIDE RIBOFURANOSIDE SALTS BY SALT METATHESIS, THE CRYSTALLINE FORM OF ITS TOSYLATE SALT AND THE CO-CRYSTALLIZED FORM OF ITS CHLORIDE:IODIDE SALT” (BIOSYNTH AG, priority 2021, published 2024).

Experiment: Solubility in methanol
Conditions: volume of methanol per 1 g salt; lower volume = better solubility

| methanol needed for dissolving 1 g of the salt | Compound |
| --- | --- |
| 40 mL | NC(=O)c1ccc[n+]([C@@H]2O[C@H](CO)[C@@H](O)[C@H]2O)c1.[Cl-] [NR·Cl, nicotinamide-β-D-ribofuranoside chloride] |
| 50 mL | NC(=O)c1ccc[n+](C2OC(CO)C(O)C2O)c1.[Br-] [NR·Br, nicotinamide-β-D-ribofuranoside bromide] |

| Compound | methanol needed for dissolving 1 g of the salt |
| --- | --- |
| nicotinamide-β-D-ribofuranoside tosylate [NR·p-tosylate] | 15 mL |
